This passage reports Activity and IC50 results from ChEMBL document CHEMBL5390284, “Shikimate-Derived Meroterpenoids from the Ascidian-Derived Fungus Amphichorda felina SYSU-MS7908 and Their Anti-Glioma Activity” (J Nat Prod, 2023).

One may read the IC50 as the concentration needed to halve the response being measured.

Active and inactive are the calls of the source. The calls are words filed in the database; no cut-off is given here.

In assay [1] the test system is T98G. Description: Antiproliferative activity against human T98G cells assessed as inhibition of cell growth at 100 uM incubated for 48 hrs by MTT assay. It is filed as functional, cell-based.
Assay [2] concerns U-251. Briefly: Antiproliferative activity against human U-251 cells assessed as inhibition of cell growth at 100 uM incubated for 48 hrs by MTT assay. The assay is classed as functional. In general terms: Tetrazolium dyes change colour on reduction, which living cells bring about.
Assay [3] concerns U-87 MG. Briefly: Antiproliferative activity against human U-87 MG cells assessed as inhibition of cell growth at 100 uM incubated for 48 hrs by MTT assay. The following applies: U-87MG ATCC. The assay is classed as functional.
Assay [4] concerns T98G. Description: Induction of apoptosis in human T98G cells assessed as total apoptotic cells at 450 uM incubated for 48 hrs by Annexin V-FITC/PI staining based flow cytometry analysis (reference value: 6.4 +/- 0.8 %). The assay is classed as functional. On the technique in general: Flow cytometry measures light scatter and fluorescence of single cells or particles in a stream.

Assay [5] deals with U-87 MG. Briefly: Induction of apoptosis in human U-87 MG cells assessed as late apoptotic cells at 450 uM incubated for 48 hrs by Annexin V-FITC/PI staining based flow cytometry analysis (reference value: 11 +/- 1%). It is filed as functional, U-87MG ATCC.
Assay [6] has as its system U-251. Description: Induction of apoptosis in human U-251 cells assessed as total apoptotic cells at 450 uM incubated for 48 hrs by Annexin V-FITC/PI staining based flow cytometry analysis (reference value: 2.8 +/- 0.3%). It is filed as functional.
The subject of assay [7] is T98G. Description: Induction of apoptosis in human T98G cells assessed as early apoptotic cells at 450 uM incubated for 48 hrs by Annexin V-FITC/PI staining based flow cytometry analysis (reference value: 2.7 +/- 0.5 %). It is filed as functional.
The test system of assay [8] is U-251. Description: Antiproliferative activity against human U-251 cells assessed as inhibition of cell growth incubated for 48 hrs by MTT assay. It is filed as functional, cell-based. The following applies: U-251, 48 h.
In assay [9] the test system is U-251. Briefly: Induction of apoptosis in human U-251 cells assessed as late apoptotic cells at 450 uM incubated for 48 hrs by Annexin V-FITC/PI staining based flow cytometry analysis (reference value: 1.3 +/- 0.6%). The assay is classed as functional.
The test system of assay [10] is U-87 MG. Briefly: Antiproliferative activity against human U-87 MG cells assessed as inhibition of cell growth incubated for 48 hrs by MTT assay. The assay is classed as functional, cell-based, U-87MG ATCC.
For assay [11], the system named is T98G. Briefly: Antiproliferative activity against human T98G cells assessed as inhibition of cell growth incubated for 48 hrs by MTT assay. The assay is classed as functional, cell-based.
For assay [12], the system named is T98G. Description: Induction of apoptosis in human T98G cells assessed as late apoptotic cells at 450 uM incubated for 48 hrs by Annexin V-FITC/PI staining based flow cytometry analysis (reference value: 3.7 +/- 0.3 %). The assay is classed as functional.
For assay [13], the system named is U-251. Briefly: Induction of apoptosis in human U-251 cells assessed as early apoptotic cells at 450 uM incubated for 48 hrs by Annexin V-FITC/PI staining based flow cytometry analysis (reference value: 1.5 +/- 0.4 %). It is filed as functional.
The subject of assay [14] is U-87 MG. Briefly: Induction of apoptosis in human U-87 MG cells assessed as early apoptotic cells at 450 uM incubated for 48 hrs by Annexin V-FITC/PI staining based flow cytometry analysis (reference value: 1.1 +/- 0.6 %). It is filed as functional, U-87MG ATCC.
The test system of assay [15] is U-87 MG. Description: Induction of apoptosis in human U-87 MG cells assessed as total apoptotic cells at 450 uM incubated for 48 hrs by Annexin V-FITC/PI staining based flow cytometry analysis (reference value: 16 +/- 1%). The assay is classed as functional, U-87MG ATCC.

Take `CC(=O)O[C@@H]1C[C@]23O[C@H]2C2=C(C(=O)CC(C)(C)O2)[C@@H](O)[C@@H]3OC1(C)C`: the outcome with T98G [1], with U-251 [2] and in the assay with U-87 MG [3] was inactive.
With `Cn1nnc2c(C(N)=O)ncn2c1=O` [TEMOZOLOMIDE], the Activity in the assay on T98G [4] came to 18%; in the assay with U-87 MG [5] it was 11%; in the assay on U-251 [6], 8.3%; with T98G [7], 7.5%; in the assay on U-251 [9], 4.6%; with T98G [12], 9.9%. For the same compound, the Activity in the assay on U-251 [13] was 3.7%; in the assay on U-87 MG [14], 4.2%; in the assay with U-87 MG [15], 15%. Besides, the figures for the 50% inhibitory concentration (IC50) with U-251 [8], with U-87 MG [10] and in the assay on T98G [11] were 189 µM, 203 µM and 151 µM, respectively.
As for `CO[C@@H]1C2=C(OC(C)(C)CC2=O)[C@@H]2O[C@@]23C[C@@H](OC(C)=O)C(C)(C)O[C@@H]13`, the outcome in the assay on T98G [1], in the assay on U-251 [2] and in the assay with U-87 MG [3] was inactive.
For the compound `CC(=O)O[C@@H]1C[C@]23O[C@H]2[C@]2(O)CC(C)=CC(=O)C2=C[C@@H]3OC1(C)C`, the result in the assay with T98G [1], with U-251 [2] and in the assay on U-87 MG [3] was inactive.
